Here are results for 25 compounds from patent publication US20100120778A1, “QUINOXALINE-BASED LXR MODULATORS” (Wyeth, priority 2008, published 2010).

By IC50 is commonly meant the concentration needed to halve the response being measured.

Assay [1] has as its target T1, human LXRβ (Homo sapiens, UniProt P55055).
T1 construct: biotin (biotinylated); made in house; host or cells: E. coli
T1 sequence (P55055 1-460): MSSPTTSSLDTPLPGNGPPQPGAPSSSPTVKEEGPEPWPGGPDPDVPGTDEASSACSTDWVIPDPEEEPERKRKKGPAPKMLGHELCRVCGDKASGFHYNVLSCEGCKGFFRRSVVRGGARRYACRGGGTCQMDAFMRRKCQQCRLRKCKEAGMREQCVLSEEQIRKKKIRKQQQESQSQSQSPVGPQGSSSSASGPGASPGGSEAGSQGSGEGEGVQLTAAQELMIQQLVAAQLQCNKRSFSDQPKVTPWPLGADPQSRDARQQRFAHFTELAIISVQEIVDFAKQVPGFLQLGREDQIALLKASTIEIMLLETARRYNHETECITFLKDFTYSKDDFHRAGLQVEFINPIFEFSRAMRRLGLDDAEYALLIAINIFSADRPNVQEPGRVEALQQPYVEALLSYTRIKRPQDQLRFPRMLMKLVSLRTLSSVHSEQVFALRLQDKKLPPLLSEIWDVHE
Description: Ligand-binding test procedure for human LXRβ (3H T0901317 tracer, flash plates). The conditions noted are these: biotinylated hLXRβ, tracer 3H T0901317, +4° C. over night. As to the method: I. Ligand-Binding Test Procedure for Human LXRβ.
Receptor source: E. coli extracted from cells expressing biotinylated hLXRβ. Extract was made in a similar buffer as above, but with 50 mM TRIS.
Washed streptavidin and coated flash plates with wash buffer. Diluted receptor extract to give Bmax˜4000 cpm and add to the wells. Wrapped the plates in aluminum foil and stored them at +4° C. overnight.
(§1) Made a dilution series in DMSO of the test ligands. Made a 5 nM solution of the radioactive tracer in buffer. Mixed 250 μl diluted tracer with 5 μl of the test ligand from each concentration of the dilution series. Washed the receptor-coated flash plates. Added 200 μl per well of the ligand/radiolabel mixture to the receptor-coated flash plates. Wrapped the plates in aluminum foil and incubate at +4° C. over night.
Aspirated wells, and washed the flashed plates. Sealed the plate.
Measured the remaining radioactivity in the plate.

The target of assay [2] is T2, human LXRα (Homo sapiens, UniProt Q13133).
T2 construct: biotin (biotinylated); made in house; host or cells: E. coli
T2 sequence (Q13133 1-447): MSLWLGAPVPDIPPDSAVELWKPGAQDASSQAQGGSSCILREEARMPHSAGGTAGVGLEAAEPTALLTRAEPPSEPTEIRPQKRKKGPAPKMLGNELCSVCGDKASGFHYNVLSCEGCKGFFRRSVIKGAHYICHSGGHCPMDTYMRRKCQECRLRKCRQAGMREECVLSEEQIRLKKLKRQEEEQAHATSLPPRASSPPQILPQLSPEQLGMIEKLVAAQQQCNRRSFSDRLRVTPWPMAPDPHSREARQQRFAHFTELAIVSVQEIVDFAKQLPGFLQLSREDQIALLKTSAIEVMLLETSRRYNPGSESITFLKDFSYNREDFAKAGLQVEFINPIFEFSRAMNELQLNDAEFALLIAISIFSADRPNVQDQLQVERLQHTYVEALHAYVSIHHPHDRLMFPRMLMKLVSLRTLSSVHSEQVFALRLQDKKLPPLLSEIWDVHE
Description: Ligand-binding test procedure for human LXRα (3H T0901317 tracer, flash plates). The conditions noted are these: biotinylated hLXRα, tracer 3H T0901317, +4° C. over night. The protocol: II. Ligand-Binding Test Procedure for Human LXRα.
Receptor source: E. coli extract from cells expressing biotinylated hLXRα. Extract was made in a similar buffer as above, but with 50 mM TRIS.
Washed streptavidin and coated flash plates with wash buffer. Diluted receptor extract to give Bmax˜4000 cpm and add to the wells. Wrapped the plates in aluminum foil and stored them at +4° C. over night.
as §1
Aspirated wells, and wash the flashed plates. Sealed the plate. Measured the remaining radioactivity in the plate.

In the case of `Cc1nc2c(C(F)(F)F)cccc2nc1-c1cc(Oc2cccc(S(=O)(=O)C(C)C)c2)ccc1Cl` [Example 57, 2-(2-chloro-5-{3-[(1-methylethyl)sulfonyl]phenoxy}phenyl)-3-methyl-5-(trifluoromethyl)-quinoxaline], the values for the half-inhibitory concentration (IC50) in assay [1] and in assay [2] were 78.9 nM and 947 nM, respectively.
Consider `CS(=O)(=O)c1cccc(-c2cccc(Oc3cnc4c(Cl)cccc4n3)c2)c1` [Example 78, 5-chloro-2-{[3′-(methylsulfonyl)biphenyl-3-yl]oxy}quinoxaline], for which the values for the IC50 in assay [1] and in assay [2] were 263 nM and over 1000 nM, respectively.
Taken in the same sequence, the figures for `CS(=O)(=O)c1cccc(-c2ccc(Oc3cnc4c(Cl)cccc4n3)cc2)c1` [Example 79, 5-chloro-2-{[3′-(methylsulfonyl)biphenyl-4-yl]oxy}quinoxaline] were over 1000 nM and over 1000 nM.
Taken in the same sequence, the figures for `Cc1nc2cccc(C(F)(F)F)c2nc1-c1ccc(-c2cncc(S(C)(=O)=O)c2)cc1` [Example 73, 2-methyl-3-{4-[5-(methylsulfonyl)pyridin-3-yl]phenyl}-5-(trifluoromethyl)quinoxaline] were 123 nM and over 1000 nM.
With `Cc1nc2cccc(C(F)(F)F)c2nc1-c1cc(Oc2cccc(S(=O)(=O)CCCO)c2)ccc1Cl` [Example 63, 3-[(3-{4-chloro-3-[3-methyl-8-(trifluoromethyl)quinoxalin-2-yl]phenoxy}phenyl)sulfonyl]-propan-1-ol], the figures for the IC50 in assay [1] and in assay [2] were 48 nM and 979 nM, respectively.
The corresponding values for `Cc1nc2c(C(F)(F)F)cccc2nc1-c1cc(Oc2cccc(S(=O)(=O)CCCCl)c2)ccc1Cl` [Example 76, 2-(2-chloro-5-{3-[(3-chloropropyl)sulfonyl]phenoxy}phenyl)-3-methyl-5-(trifluoromethyl)-quinoxaline] are 204 nM and 401 nM.
Taken in the same sequence, the figures for `Cc1nc2c(C(F)(F)F)cccc2nc1-c1cc(Oc2cccc(S(=O)(=O)CCCO)c2)ccc1Cl` [Example 58, 3-[(3-{4-chloro-3-[3-methyl-5-(trifluoromethyl)quinoxalin-2-yl]phenoxy}phenyl)sulfonyl]-propan-1-ol] were 63.5 nM and 810 nM.
Taken in the same sequence, the figures for `Cc1nc2c(Cl)cccc2nc1Oc1cccc(-c2cccc(S(C)(=O)=O)c2)c1` [Example 80, 5-chloro-3-methyl-2-{[3′-(methylsulfonyl)biphenyl-3-yl]oxy}quinoxaline] were 108 nM and 818 nM.
For `Cc1nc2c(Cl)cccc2nc1-c1cccc(Oc2cccc(S(C)(=O)=O)c2)c1` [Example 5, 5-chloro-3-methyl-2-{3-[3-(methylsulfonyl)phenoxy]phenyl}quinoxaline], the 50% inhibitory concentration (IC50) was 390 nM in assay [1] and over 1000 nM in assay [2].
The corresponding values for `Cc1nc2cccc(C(F)(F)F)c2nc1-c1cc(Oc2cccc(S(C)(=O)=O)c2)ccc1Cl` [Example 37, 3-{2-chloro-5-[3-(methylsulfonyl)phenoxy]phenyl}-2-methyl-5-(trifluoromethyl)quinoxaline] are 37 nM and 557 nM.
Consider `Cc1nc2cccc(C(F)(F)F)c2nc1-c1cc(Oc2cc(Cl)cc(S(C)(=O)=O)c2)ccc1Cl` [Example 65, 3-{2-chloro-5-[3-chloro-5-(methylsulfonyl)phenoxy]phenyl}-2-methyl-5-(trifluoromethyl)-quinoxaline], for which the concentration for half-maximal inhibition (IC50) is 453 nM in assay [1] and over 1000 nM in assay [2].
The corresponding values for `Cc1nc2c(C(F)(F)F)cccc2nc1-c1ccc(-c2cncc(S(C)(=O)=O)c2)cc1` [Example 74, 3-methyl-2-{4-[5-(methylsulfonyl)pyridin-3-yl]phenyl}-5-(trifluoromethyl)quinoxaline] are over 1000 nM and over 1000 nM.
The corresponding values for `Cc1nc2cccc(Cl)c2nc1-c1ccc(-c2cccc(S(C)(=O)=O)c2)cc1` [Example 68, 5-chloro-2-methyl-3-[3′-(methylsulfonyl)biphenyl-4-yl]quinoxaline] are 235 nM and over 1000 nM.
Take `Cc1nc2ccccc2nc1-c1cc(Oc2cccc(S(C)(=O)=O)c2)ccc1Cl` [Example 66, 2-{2-chloro-5-[3-(methylsulfonyl)phenoxy]phenyl}-3-methylquinoxaline]: the IC50 in assay [1] was 361 nM; in assay [2], over 1000 nM.
Regarding `Cc1nc2c(Cl)cccc2nc1Oc1ccc(-c2cccc(NS(C)(=O)=O)c2)cc1` [Example 93, N-{4′-[(5-chloro-3-methylquinoxalin-2-yl)oxy]biphenyl-3-yl}methanesulfonamide], the results for the IC50 in assay [1] and in assay [2] were 869 nM and 3530 nM, respectively.
Turning to `Cc1nc2c(C(F)(F)F)cccc2nc1-c1cc(Oc2ccc(S(C)(=O)=O)cc2)ccc1Cl` [Example 42, 2-{2-chloro-5-[4-(methylsulfonyl)phenoxy]phenyl}-3-methyl-5-(trifluoromethyl)quinoxaline], the half-maximal inhibitory concentration (IC50) in assay [1] was found to be 745 nM; in assay [2], 1890 nM.
As to `Cc1nc2c(C(F)(F)F)cccc2nc1-c1cc(Oc2cc(F)cc(S(C)(=O)=O)c2)ccc1Cl` [Example 59, 2-{2-chloro-5-[3-fluoro-5-(methylsulfonyl)phenoxy]phenyl}-3-methyl-5-(trifluoromethyl)-quinoxaline], the concentration for half-maximal inhibition (IC50) in assay [1] came to 32 nM; in assay [2] it was 249 nM.
As for `CS(=O)(=O)c1cccc(Oc2cccc(-c3cnc4cccc(C(F)(F)F)c4n3)c2)c1` [Example 9, 2-{3-[3-(methylsulfonyl)phenoxy]phenyl}-8-(trifluoromethyl)quinoxaline], the values for the IC50 in assay [1] and in assay [2] were 1960 nM and over 1000 nM, respectively.
The corresponding values for `Cc1nc2cccc(C(F)(F)F)c2nc1-c1ccc(Oc2cccc(S(C)(=O)=O)c2)cc1` [Example 7, 2-methyl-3-{4-[3-(methylsulfonyl)phenoxy]phenyl}-5-(trifluoromethyl)quinoxaline] are 1550 nM and over 1000 nM.
For the compound `Cc1nc2cccc(C(F)(F)F)c2nc1-c1ccc(-c2cccc(S(C)(=O)=O)c2)cc1` [Example 4, 2-methyl-3-[3′-(methylsulfonyl)biphenyl-4-yl]-5-(trifluoromethyl)quinoxaline], the results for the IC50 in assay [1] and in assay [2] were 373 nM and over 1000 nM, respectively.
For `CCS(=O)(=O)c1cccc(-c2cccc(Oc3nc4cccc(Cl)c4nc3C)c2)c1` [Example 81, 5-chloro-2-{[3′-(ethylsulfonyl)biphenyl-3-yl]oxy}-3-methylquinoxaline], the IC50 in assay [1] is 240 nM; in assay [2], over 1000 nM.
Taken in the same sequence, the figures for `Cc1nc2c(Cl)cccc2nc1Oc1ccc(-c2cccc(S(C)(=O)=O)c2)cc1` [Example 82, 5-chloro-3-methyl-2-{[3′-(methylsulfonyl)biphenyl-4-yl]oxy}quinoxaline] were 1030 nM and over 1000 nM.
Taken in the same sequence, the figures for `Cc1nc2c(C(F)(F)F)cccc2nc1-c1cc(Oc2ccccc2S(C)(=O)=O)ccc1Cl` [Example 46, 2-{2-chloro-5-[2-(methylsulfonyl)phenoxy]phenyl}-3-methyl-5-(trifluoromethyl)quinoxaline] were 1460 nM and 1620 nM.
Taken in the same sequence, the figures for `Cc1nc2cccc(C(F)(F)F)c2nc1-c1cc(Oc2cccc(S(=O)(=O)C(C)C)c2)ccc1Cl` [Example 62, 3-(2-chloro-5-{3-[(1-methylethyl)sulfonyl]phenoxy}phenyl)-2-methyl-5-(trifluoromethyl)quinoxaline] were 38 nM and 876 nM.
`CCS(=O)(=O)c1cccc(Oc2ccc(Cl)c(-c3nc4cccc(C(F)(F)F)c4nc3C)c2)c1` [Example 56, 2-{2-chloro-5-[3-(ethylsulfonyl)phenoxy]phenyl}-3-methyl-5-(trifluoromethyl)quinoxaline]: the results for the half-maximal inhibitory concentration (IC50) in assay [1] and in assay [2] were 12 nM and 435 nM, respectively.
